For one assay, the target named is T1, Estrogen receptor (Homo sapiens, UniProt P03372).
T1 sequence (P03372 whole entry): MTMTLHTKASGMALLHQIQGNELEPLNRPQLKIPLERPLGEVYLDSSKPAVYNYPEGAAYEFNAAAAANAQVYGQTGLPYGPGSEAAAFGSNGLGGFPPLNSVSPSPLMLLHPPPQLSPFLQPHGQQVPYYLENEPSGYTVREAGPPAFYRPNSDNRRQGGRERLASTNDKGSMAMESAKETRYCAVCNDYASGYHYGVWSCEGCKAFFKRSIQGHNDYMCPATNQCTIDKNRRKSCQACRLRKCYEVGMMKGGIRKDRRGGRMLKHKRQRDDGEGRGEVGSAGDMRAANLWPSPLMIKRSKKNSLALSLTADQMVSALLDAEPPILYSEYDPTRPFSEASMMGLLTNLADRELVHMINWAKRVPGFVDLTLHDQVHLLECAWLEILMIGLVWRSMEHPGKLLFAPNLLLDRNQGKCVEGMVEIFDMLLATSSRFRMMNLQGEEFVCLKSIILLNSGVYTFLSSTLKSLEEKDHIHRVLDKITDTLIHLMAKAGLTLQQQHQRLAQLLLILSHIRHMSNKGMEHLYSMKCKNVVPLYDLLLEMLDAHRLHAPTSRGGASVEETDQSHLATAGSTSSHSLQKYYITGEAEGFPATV

For a further assay, the target named is T2, Progesterone receptor (Homo sapiens, UniProt P06401).
T2 sequence (P06401 whole entry): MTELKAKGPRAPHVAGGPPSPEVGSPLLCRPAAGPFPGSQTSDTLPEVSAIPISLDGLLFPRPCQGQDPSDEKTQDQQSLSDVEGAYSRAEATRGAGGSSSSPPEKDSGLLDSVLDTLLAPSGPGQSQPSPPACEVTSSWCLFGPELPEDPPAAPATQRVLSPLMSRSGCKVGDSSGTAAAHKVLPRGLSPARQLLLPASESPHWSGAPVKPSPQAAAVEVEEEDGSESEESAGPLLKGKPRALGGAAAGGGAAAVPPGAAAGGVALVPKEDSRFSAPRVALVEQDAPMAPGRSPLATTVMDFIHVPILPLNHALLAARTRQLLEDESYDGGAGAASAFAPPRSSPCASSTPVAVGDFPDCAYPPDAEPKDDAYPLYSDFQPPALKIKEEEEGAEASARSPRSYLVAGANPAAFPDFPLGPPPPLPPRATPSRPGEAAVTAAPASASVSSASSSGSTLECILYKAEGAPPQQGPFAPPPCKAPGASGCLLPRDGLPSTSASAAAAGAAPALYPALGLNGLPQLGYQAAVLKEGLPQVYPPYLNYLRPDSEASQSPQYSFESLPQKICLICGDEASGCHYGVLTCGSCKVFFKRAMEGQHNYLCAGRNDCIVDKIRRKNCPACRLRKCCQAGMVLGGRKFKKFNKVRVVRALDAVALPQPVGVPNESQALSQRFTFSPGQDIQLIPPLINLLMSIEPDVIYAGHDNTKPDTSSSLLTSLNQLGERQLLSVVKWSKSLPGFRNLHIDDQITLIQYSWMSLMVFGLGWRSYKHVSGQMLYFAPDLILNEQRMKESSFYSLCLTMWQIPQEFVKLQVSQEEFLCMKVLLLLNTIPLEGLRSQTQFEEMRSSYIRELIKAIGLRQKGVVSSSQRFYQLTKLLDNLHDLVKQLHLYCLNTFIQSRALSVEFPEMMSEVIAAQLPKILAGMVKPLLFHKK

A further assay has as its target T3, Glucocorticoid receptor (Homo sapiens, UniProt P04150).
T3 sequence (P04150 whole entry): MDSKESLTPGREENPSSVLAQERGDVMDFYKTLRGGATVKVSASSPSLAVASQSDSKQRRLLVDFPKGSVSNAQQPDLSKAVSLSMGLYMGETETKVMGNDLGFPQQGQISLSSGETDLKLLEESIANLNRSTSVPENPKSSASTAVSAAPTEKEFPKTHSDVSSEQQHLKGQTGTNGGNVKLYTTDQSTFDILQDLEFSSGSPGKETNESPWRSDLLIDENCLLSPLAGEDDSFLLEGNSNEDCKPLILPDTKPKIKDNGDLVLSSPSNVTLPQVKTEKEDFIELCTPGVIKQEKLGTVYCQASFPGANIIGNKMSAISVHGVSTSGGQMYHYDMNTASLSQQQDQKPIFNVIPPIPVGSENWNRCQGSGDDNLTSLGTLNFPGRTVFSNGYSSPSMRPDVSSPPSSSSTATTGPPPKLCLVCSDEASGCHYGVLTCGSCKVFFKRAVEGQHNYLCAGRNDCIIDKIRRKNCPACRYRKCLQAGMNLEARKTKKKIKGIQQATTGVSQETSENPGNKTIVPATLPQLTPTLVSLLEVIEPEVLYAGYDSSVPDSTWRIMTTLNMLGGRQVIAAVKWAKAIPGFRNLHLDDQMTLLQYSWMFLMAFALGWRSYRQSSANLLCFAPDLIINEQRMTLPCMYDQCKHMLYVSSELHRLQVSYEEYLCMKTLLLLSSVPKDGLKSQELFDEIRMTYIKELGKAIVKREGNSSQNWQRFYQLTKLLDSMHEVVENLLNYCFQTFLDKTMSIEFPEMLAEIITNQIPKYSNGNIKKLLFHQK

A further assay has as its target T4, Androgen receptor (Rattus norvegicus, UniProt P15207).
T4 sequence (P15207 whole entry): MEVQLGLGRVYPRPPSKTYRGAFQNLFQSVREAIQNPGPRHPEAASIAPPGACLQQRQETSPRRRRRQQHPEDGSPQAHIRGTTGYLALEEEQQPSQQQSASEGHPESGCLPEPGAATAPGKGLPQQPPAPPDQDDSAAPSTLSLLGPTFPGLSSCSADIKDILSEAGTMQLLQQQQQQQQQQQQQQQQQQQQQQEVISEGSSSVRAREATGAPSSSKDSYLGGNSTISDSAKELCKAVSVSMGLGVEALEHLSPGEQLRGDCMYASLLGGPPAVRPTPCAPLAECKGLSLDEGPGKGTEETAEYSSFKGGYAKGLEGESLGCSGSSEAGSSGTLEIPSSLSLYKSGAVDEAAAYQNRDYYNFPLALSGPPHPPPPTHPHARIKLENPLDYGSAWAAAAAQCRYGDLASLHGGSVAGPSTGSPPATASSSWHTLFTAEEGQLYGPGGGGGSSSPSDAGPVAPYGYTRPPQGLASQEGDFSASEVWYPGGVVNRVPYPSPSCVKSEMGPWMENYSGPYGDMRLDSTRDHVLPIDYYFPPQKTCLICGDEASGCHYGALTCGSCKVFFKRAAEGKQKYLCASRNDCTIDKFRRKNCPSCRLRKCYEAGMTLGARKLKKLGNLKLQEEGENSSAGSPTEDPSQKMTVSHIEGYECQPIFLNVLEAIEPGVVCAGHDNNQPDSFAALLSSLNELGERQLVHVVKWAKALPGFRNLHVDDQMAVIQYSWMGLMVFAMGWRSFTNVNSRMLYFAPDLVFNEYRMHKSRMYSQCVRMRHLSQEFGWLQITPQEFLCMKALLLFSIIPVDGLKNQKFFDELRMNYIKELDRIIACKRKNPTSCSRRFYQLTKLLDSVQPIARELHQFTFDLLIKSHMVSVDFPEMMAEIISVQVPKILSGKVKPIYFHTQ

Some results are limits rather than exact numbers.

What is called IC50 is the concentration that gives 50% inhibition. A high value points to lower potency. In general, Ki refers to a dissociation constant, usually derived from enzyme kinetics or from competition with a known ligand. High values mean weaker binding, low ones tighter binding. With `COC1C=C2C=C3C(=C(C)C(=O)N3C)[C@@H](C)[C@]2(C)CC1OC(=O)N(C)C` (stereo partly drawn) [CP8816], the IC50 against Estrogen receptor is above 10000 nM; against Progesterone receptor it was 25 nM. The compound further displayed a Ki on Glucocorticoid receptor above 5000 nM.

Regarding `CNC(=O)OC1C[C@]2(C)C(=CC1O)C=C1C(=C(C)C(=O)N1C)[C@H]2C` (stereo partly drawn) [CP8863], the IC50 was above 10000 nM against Estrogen receptor, 40 nM at Progesterone receptor and 9700 nM on Androgen receptor. In addition, on Glucocorticoid receptor, the Ki was above 10000 nM.

`CC(=O)OC1(C(C)=O)CCC2C3CC(C)C4=CC(=O)CCC4(C)C3CCC21C` (stereo not drawn) [NSC_4042] showed a Ki at Glucocorticoid receptor of 43 nM. That is a double-digit nanomolar value.

The values above are taken from BindingDB's records for doi:10.1124/jpet.104.074146 (Meiji Seika Kaisha, 2005).
